Measurements from PubChem BioAssay (NCI).
Values joined by “and” are separate entries in the source; they are usually repeats but may differ in a detail not shown here. Equal values may be shown once.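 Exposure lasted 48 hours, with cells grown in 96-well plates and compounds tested at five concentrations. Here, GI50 denotes the concentration required for 50% inhibition of growth. At the TGI there is no net growth.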

Legend:
Assay in all cases: NCI tumour cell line growth inhibition, 48 h
CCRF-CEM leukemia = system: CCRF-CEM leukemia
ACHN renal = system: ACHN renal
UO-31 renal = system: UO-31 renal
MOLT-4 leukemia = system: MOLT-4 leukemia
SW-620 colon = system: SW-620 colon
HCC-2998 colon = system: HCC-2998 colon
NCI-H460 lung = system: NCI-H460 lung
HCT-116 colon = system: HCT-116 colon
IGROV1 ovarian = system: IGROV1 ovarian
MDA-MB-435 = system: MDA-MB-435

Compound	TGI (CCRF-CEM leukemia)	TGI (ACHN renal)	TGI (UO-31 renal)	TGI (MOLT-4 leukemia)	TGI (SW-620 colon)	TGI (HCC-2998 colon)	TGI (NCI-H460 lung)	TGI (HCT-116 colon)	TGI (IGROV1 ovarian)	TGI (MDA-MB-435) [µM]	GI50 (CCRF-CEM leukemia) [µM]	GI50 (ACHN renal) [µM]	GI50 (UO-31 renal) [µM]	GI50 (MOLT-4 leukemia) [µM]	GI50 (SW-620 colon) [µM]	GI50 (HCC-2998 colon) [µM]	GI50 (NCI-H460 lung) [µM]	GI50 (HCT-116 colon) [µM]	GI50 (IGROV1 ovarian) [µM]	GI50 (MDA-MB-435) [µM]
CN1CC(C(=O)C2C(=O)c3ccccc3C2=O)C(=O)C(=O)C(C(=O)C2C(=O)c3ccccc3C2=O)C1 (stereo not given)	> 100 µM	> 100 µM	> 100 µM	> 100 µM	> 100 µM	> 100 µM	> 100 µM	> 100 µM	> 100 µM											
CC1=CCC23C(C1)OC(Br)(C=CC2(C)O)C3(C)C (stereo not given)	> 100 µM	> 100 µM			> 100 µM	> 100 µM	> 100 µM	> 100 µM	> 100 µM											
COc1cccc(/C=C/c2cnc3ccccc3n2)c1OC	> 100 µM	> 100 µM	> 100 µM	68.1 µM	> 100 µM		> 100 µM	> 100 µM	> 100 µM	> 100										
CCOC(=O)C1SC(=Nc2ccc(Cl)c(Cl)c2)N=C1C (stereo not given)	31.3 µM	> 100 µM	> 100 µM	> 100 µM	> 100 µM	> 100 µM	> 100 µM		> 100 µM											
Fc1ccc(C2SCc3nc4ccccc4n32)cc1 (stereo not given)	> 100 µM	> 100 µM	70.1 µM	> 100 µM	> 100 µM		> 100 µM	> 100 µM	> 100 µM											
O=C(OCC1CO1)c1cccs1 (stereo not given)	> 100 µM	> 100 µM	> 100 µM	> 100 µM	> 100 µM	> 100 µM	> 100 µM		> 100 µM											
CC(=O)OCC1OC(OC2CC3C(C)(C)C(O)CC[C@]3(C)C3CCC45CC4(CC[C@H]5C(C)CC(O)C4OC4(C)C)[C@]23C)C(O)C(O)C1O (stereo not given in full)	6.74 µM and 6.72 µM	15.5 µM and 33.6 µM	15.4 µM and 31.6 µM	2.34 µM and 7.26 µM	16.5 µM and 16.9 µM	13.8 µM and 21.3 µM	16.8 µM and 20.4 µM	16.3 µM and 21.8 µM	7.61 µM and 15.6 µM		2.56	19.2	17.7	3.01	4.74	8.26	5.08	3.57	5.91	
COc1ccc(-n2c3c(c4c(CN5CCOCC5)c(O)ccc42)CCc2ccccc2C3=O)cc1		> 100 µM	> 100 µM	> 100 µM	> 100 µM	> 100 µM	> 100 µM	> 100 µM	> 100 µM	47.8		> 100	> 100	45.9	82.2	> 100	> 100	> 100	37.6	12.1
CO[C@@H]1CC(=O)C2(CC(=O)O[C@@H]2/C=C(\C)CCC=C(C)C)C[C@@H]1O (stereo not given in full)		1.78 µM		> 50 µM	> 50 µM	0.814 µM		1.14 µM	4.03 µM	3.59		0.817	1.19	0.233	0.754	0.214	0.744	0.489	1.09	0.803
O=C(C(=O)N1CC2C=CC1CC2)c1c[nH]c2ccccc12 (stereo not given)	> 100 µM	> 100 µM	> 100 µM	> 100 µM	> 100 µM	> 100 µM	> 100 µM	> 100 µM	> 100 µM											
Nc1c(C(=O)Nc2ccccc2)[n+]([O-])c2ccccc2[n+]1[O-]	> 100 µM	30.1 µM	42 µM	> 100 µM	38.3 µM	32.2 µM	35.7 µM		44.8 µM											
COc1ccc(/C=C\c2cc(OC)c(OC)c(OC)c2)cc1OC(=O)CCC(=O)O	> 100 µM	> 100 µM	> 100 µM		> 100 µM		31.5 µM		> 100 µM	< 0.0001			< 0.0001							
COc1cc2c(cc1O)CC13CCC(=O)N1CCc1cc(OC)c(O)c-2c13 (stereo not given)	> 68.1 µM	> 68.1 µM	> 68.1 µM	> 68.1 µM	> 68.1 µM	> 68.1 µM	> 68.1 µM	> 68.1 µM	> 68.1 µM											
Cc1cc(=O)oc2cc(OCc3c(F)cccc3Cl)ccc12		> 100 µM	> 100 µM					> 100 µM	> 100 µM	3.5										
COc1ccccc1NC(=O)C1=C(C)NC(C)=C(C(=O)Nc2ccccc2OC)C1c1ccc(C)cc1		> 100 µM	> 100 µM		> 100 µM	> 100 µM	> 100 µM	> 100 µM	> 100 µM											
Cc1ccc(-c2cc(C3=CC(=O)C=CC3=O)n(-c3ccc(S(N)(=O)=O)cc3)n2)cc1	> 100 µM	> 100 µM	> 100 µM	> 100 µM	> 100 µM		> 100 µM	33 µM	> 100 µM	> 100	> 100	42.9	> 100	9.06	44.5		68.2	17.3	> 100	59.4
CCN(CCCl)CCCNc1c2ccccc2nc2ccc(OC)cc12		1.34 µM	2060 µM		1.39 µM			1.16 µM	1510 µM		67.6			15.7		436	129			
O=Nc1ccc2ccccc2c1O		18.4 µM	21.7 µM		10.5 µM	29.1 µM	36.6 µM	7.36 µM	5.91 µM	4.53		5.5	4.99		2.88	14.7	15.5	2.6	2.07	2.31
O=C(c1ccco1)c1c(C(F)(F)F)n([O-])c2ccccc2[n+]1=O	3.71 µM	4.21 µM	2.03 µM	0.564 µM	20.5 µM		1.15 µM	8.52 µM	1.21 µM	17.5	0.671	0.506	0.755	0.102	0.859		0.245	0.434	0.549	1.85

Compound	TGI (CCRF-CEM leukemia)	TGI (ACHN renal)	TGI (UO-31 renal)	TGI (MOLT-4 leukemia)	TGI (SW-620 colon)	TGI (HCC-2998 colon)	TGI (NCI-H460 lung)	TGI (HCT-116 colon)	TGI (IGROV1 ovarian)	TGI (MDA-MB-435) [µM]	GI50 (CCRF-CEM leukemia) [µM]	GI50 (ACHN renal) [µM]	GI50 (UO-31 renal) [µM]	GI50 (MOLT-4 leukemia) [µM]	GI50 (SW-620 colon) [µM]	GI50 (HCC-2998 colon) [µM]	GI50 (NCI-H460 lung) [µM]	GI50 (HCT-116 colon) [µM]	GI50 (IGROV1 ovarian) [µM]	GI50 (MDA-MB-435) [µM]
COc1ccc(C(=O)c2cc3c(OC)c(OC)c(OC)cc3[nH]2)cc1	> 100 µM	> 100 µM	> 100 µM	> 100 µM	> 100 µM	> 100 µM	> 100 µM	> 100 µM	> 100 µM		5.27	12.8	6.19	3.51	5.87	3.8	3.26	3.22	9.68	
CC(=O)CCCCO	> 100 µM	> 100 µM	> 100 µM	> 100 µM	> 100 µM		> 100 µM	> 100 µM	> 100 µM											
COc1ccc2nc3cc(Cl)ccc3c(NCCCNCCC(C)O)c2c1 (stereo not given)	2.61 µM	1.68 µM	3.27 µM	1.58 µM	2.25 µM		0.561 µM	1.54 µM	2.47 µM	1.79	0.361	0.192	1.11	0.119	0.234		0.178	0.0569	0.39	0.504
Cc1ccc2c(c1)NC(=O)CC(c1ccccc1)=N2		> 100 µM	> 100 µM	85.8 µM	> 100 µM	> 100 µM	> 100 µM	> 100 µM	> 100 µM	> 100										
O=C(CC(=O)N1N=C(N2c3ccccc3Sc3ccccc32)CC1c1ccccc1)Nc1ccc(Cl)cc1 (stereo not given)		> 100 µM	> 100 µM		> 100 µM	> 100 µM	> 100 µM	> 100 µM	> 100 µM											
C1OC1CO[C@@H]1CO[C@H]2[C@@H]1OC[C@H]2OCC1CO1 (stereo not given in full)	> 100 µM	> 100 µM	> 100 µM	> 100 µM	> 100 µM	> 100 µM	> 100 µM	> 100 µM	> 100 µM											
Cc1ccc(SC2=CC(=O)c3nc4ccccc4c4ccnc2c34)cc1		> 100 µM	29.7 µM	> 100 µM	47.9 µM	> 100 µM	> 100 µM	> 56.8 µM	> 58.5 µM	31.2		31	15.5	42.8	23.1	> 67.8	61.4	22.7	> 37.9	16.3
CN(C)C(=O)c1cc2cnc(Nc3ccc(-c4csc5c(=O)cc(N6CCOCC6)oc45)cc3)nc2n1C1CCCC1	18.3 µM	1.25 µM	0.287 µM	3.26 µM	1 µM	1.2 µM	1.18 µM	0.815 µM		1.89	0.205	0.187	0.0537	0.23	0.153	0.219	0.209	0.169		0.196
CC#CC1/C(=C\C(=O)OC)CCCC1O (stereo not given)	> 100 µM	> 100 µM	> 100 µM	> 100 µM	> 100 µM	> 100 µM	> 100 µM	> 100 µM												
c1ccc2c(c1)[nH]c1cnc3c4cccnc4[nH]c3c12	54.2 µM	23.4 µM	33 µM	49.3 µM	32.3 µM	34.5 µM	50.1 µM	30.8 µM	40.1 µM											
O=c1cc(-c2ccccc2)[nH]n1-c1nc2ccccc2[nH]1	> 100 µM	> 100 µM	67.6 µM		> 100 µM	> 100 µM	> 100 µM	> 100 µM	> 100 µM	> 100	1.22	4.36	5.68		4.48	23.1	2.51	3.12	6.81	5.07
NC(=O)C(c1ccccc1)N1CCOCC1 (stereo not given)	> 100 µM	> 100 µM	> 100 µM	> 100 µM	> 100 µM		> 100 µM	> 100 µM	> 100 µM											
O=C1C(=O)N(c2ccc(Cl)cc2Cl)C(=O)C(=O)C1c1nc2ccccc2o1	> 100 µM	> 100 µM	> 100 µM	> 100 µM	> 100 µM	> 100 µM	> 100 µM	> 100 µM	> 100 µM											
O=C1CN(C(=O)c2ccccc2)Cc2[nH]c3ccccc3c21	> 100 µM	> 100 µM	> 100 µM	> 100 µM	> 100 µM	> 100 µM	> 100 µM	> 100 µM	> 100 µM											
Cc1cc(NS(=O)(=O)c2ccc(NC(=O)c3cccc4c(Nc5ccc(S(=O)(=O)N=C(N)N)cc5)c5ccccc5nc34)cc2)no1		> 100 µM	> 100 µM	> 100 µM	> 100 µM	> 100 µM	> 100 µM	> 100 µM	> 100 µM											
NC(N)=NNC(=O)CCCCCCCC(=O)NN=C(N)N	> 100 µM	> 100 µM	> 100 µM		27.4 µM	> 100 µM	> 100 µM	> 100 µM	> 100 µM											
CO[C@@H]1/C=C(C)/C=C/[C@@H](C)/C=C(\C)C(=O)OC(/C(C)=C/C=C(\C)CNC(=O)[C@H](CO)NC=O)[C@@H](C)/C=C/C=C/[C@H](OC)CC/C=C(C)/C=C/C1 (stereo not given in full)	16.5 µM	0.187 µM	0.425 µM	> 42.2 µM	13.6 µM		5.81 µM	6.11 µM	9.15 µM	< 0.005	< 0.005	0.00904	< 0.005	< 0.005	< 0.005		< 0.005	< 0.005	< 0.005	< 0.005
COc1ccc(-c2ccc(-c3ccc(-c4ccc(C(=N)N)cc4)s3)s2)cc1OC	6.4 µM	15.3 µM	32.4 µM	6.6 µM	4.2 µM				3.78 µM	20.2	2.24	3.79	14.4	2.51	0.882				0.937	5.32
CC(=O)OC1(C)C(=O)OC1(C)C(C)=O (stereo not given)	> 100 µM	> 100 µM	> 100 µM	> 100 µM	> 100 µM	> 100 µM		> 100 µM	> 100 µM											
